Results as given in PubChem BioAssay AID1963840 (Molecular Pharmacology Branch, DTP, NCI, 2024).

System: 695427-040-R-J1-PDC complex spheroid viability
Assay: Anticancer human tumor 695427-040-R-J1-PDC patient-derived colon adenocarcinoma cell line growth inhibition [POLQ]
Details: for IC50: curve of first compound; for viability, T/C: stronger effect = lower value; active means viability on the fitted dose curve at most 10% of control; inactive means the rest
Procedure, shortened: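 Three-cell-type spheroids modelling solid tumor plus stroma served as the readout system; POL inhibitors were tested individually and in combination, concentration ranges set by clinical Cmax where known.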

[1] = second compound 0.0316 µM, first compound 0.0316 µM
[2] = second compound 0.0316 µM, first compound 0.1 µM
[3] = second compound 0.0316 µM, first compound 0.316 µM
[4] = second compound 0.0316 µM, first compound 1 µM
[5] = second compound 0.0316 µM, first compound 3.16 µM
[6] = second compound 0.0316 µM, first compound 10 µM
[7] = second compound 0.1 µM, first compound 0.0316 µM
[8] = second compound 0.1 µM, first compound 0.1 µM
[9] = second compound 0.1 µM, first compound 0.316 µM
[10] = second compound 0.1 µM, first compound 1 µM
[11] = second compound 0.1 µM, first compound 3.16 µM
[12] = second compound 0.1 µM, first compound 10 µM
[13] = second compound 0.316 µM, first compound 0.0316 µM
[14] = second compound 0.316 µM, first compound 0.1 µM
[15] = second compound 0.316 µM, first compound 0.316 µM
[16] = second compound 0.316 µM, first compound 1 µM
[17] = second compound 0.316 µM, first compound 3.16 µM
[18] = second compound 0.316 µM, first compound 10 µM
[19] = second compound 1 µM, first compound 0.0316 µM
[20] = second compound 1 µM, first compound 0.1 µM
[21] = second compound 1 µM, first compound 0.316 µM
[22] = second compound 1 µM, first compound 1 µM
[23] = second compound 1 µM, first compound 3.16 µM
[24] = second compound 1 µM, first compound 10 µM
[25] = second compound 3.16 µM, first compound 0.0316 µM
[26] = second compound 3.16 µM, first compound 0.1 µM
[27] = second compound 3.16 µM, first compound 0.316 µM
[28] = second compound 3.16 µM, first compound 1 µM
[29] = second compound 3.16 µM, first compound 3.16 µM
[30] = second compound 3.16 µM, first compound 10 µM
[31] = second compound 10 µM, first compound 0.0316 µM
[32] = second compound 10 µM, first compound 0.1 µM
[33] = second compound 10 µM, first compound 0.316 µM
[34] = second compound 10 µM, first compound 1 µM
[35] = second compound 10 µM, first compound 3.16 µM
[36] = second compound 10 µM, first compound 10 µM
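Further: spheroids exposed to compounds for seven days.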
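Wherever viability, T/C is given: 100% = DMSO vehicle control viability.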

CCc1cc2c(N3CCc4c(cc(Cn5ccnc5)cc4-c4cn(C)nc4C(F)(F)F)C3=O)cc(C)nc2c(OC)n1 + Nc1ccc(C#CCN(C(=O)Cc2ncc(C(F)(F)F)cc2C(F)(F)F)c2ccc(F)cc2)nn1
inactive: viability, T/C [1] 102% | viability, T/C [2] 106% | viability, T/C [3] 107% | viability, T/C [4] 108% | viability, T/C [5] 113% | viability, T/C [6] 108% | viability, T/C [7] 120% | viability, T/C [8] 103% | viability, T/C [9] 103% | viability, T/C [10] 101% | viability, T/C [11] 112% | viability, T/C [12] 102% | viability, T/C [13] 102% | viability, T/C [14] 98.9% | viability, T/C [15] 99.9% | viability, T/C [16] 101% | viability, T/C [17] 113% | viability, T/C [18] 98.8% | viability, T/C [19] 112% | viability, T/C [20] 95.8% | viability, T/C [21] 99.3% | viability, T/C [22] 105% | viability, T/C [23] 98.5% | viability, T/C [24] 98.3% | viability, T/C [25] 109% | viability, T/C [26] 116% | viability, T/C [27] 88.3% | viability, T/C [28] 95.3% | viability, T/C [29] 103% | viability, T/C [30] 108% | viability, T/C [31] 107% | viability, T/C [32] 94.6% | viability, T/C [33] 95.6% | viability, T/C [34] 91.8% | viability, T/C [35] 98.7% | viability, T/C [36] 97.9%
> 10 µM: IC50 (second compound 0.0316 µM) | IC50 (second compound 0.1 µM) | IC50 (second compound 0.316 µM) | IC50 (second compound 1 µM) | IC50 (second compound 3.16 µM) | IC50 (second compound 10 µM)

COc1ccc([C@@H](O)c2cc(-c3ncnc4cc(N5CCOCC5)ccc34)c(F)cc2Cl)nn1 + COC1C(OC(N)=O)C(O)C(Oc2ccc3c(O)c(NC(=O)c4ccc(O)c(CC=C(C)C)c4)c(=O)oc3c2C)OC1(C)C
> 10 µM: IC50 (second compound 0.0316 µM) | IC50 (second compound 0.1 µM) | IC50 (second compound 0.316 µM) | IC50 (second compound 1 µM) | IC50 (second compound 3.16 µM) | IC50 (second compound 10 µM)
inactive: viability, T/C [1] 104% | viability, T/C [2] 99.5% | viability, T/C [3] 105% | viability, T/C [4] 92.9% | viability, T/C [5] 75.5% | viability, T/C [6] 56% | viability, T/C [7] 114% | viability, T/C [8] 104% | viability, T/C [9] 104% | viability, T/C [10] 94.2% | viability, T/C [11] 76.7% | viability, T/C [12] 57.9% | viability, T/C [13] 127% | viability, T/C [14] 99.1% | viability, T/C [15] 99% | viability, T/C [16] 89.9% | viability, T/C [17] 76.8% | viability, T/C [18] 51.5% | viability, T/C [19] 94.9% | viability, T/C [20] 92.3% | viability, T/C [21] 98.3% | viability, T/C [22] 91.5% | viability, T/C [23] 82% | viability, T/C [24] 54.5% | viability, T/C [25] 105% | viability, T/C [26] 101% | viability, T/C [27] 97% | viability, T/C [28] 98.4% | viability, T/C [29] 83.5% | viability, T/C [30] 57.6% | viability, T/C [31] 101% | viability, T/C [32] 89.6% | viability, T/C [33] 94.4% | viability, T/C [34] 101% | viability, T/C [35] 76.8% | viability, T/C [36] 51.7%

COc1cccc(OCCCN)c1-c1cc(Nc2cnc(C#N)cn2)n[nH]1 + Nc1ccc(C#CCN(C(=O)Cc2ncc(C(F)(F)F)cc2C(F)(F)F)c2ccc(F)cc2)nn1
0.252 µM: IC50 (second compound 10 µM)
> 1 µM: IC50 (second compound 0.0316 µM) | IC50 (second compound 0.1 µM) | IC50 (second compound 0.316 µM) | IC50 (second compound 1 µM) | IC50 (second compound 3.16 µM)
inactive: viability, T/C (second compound 0.0316 µM, first compound 0.00316 µM) 106% | viability, T/C (second compound 0.0316 µM, first compound 0.01 µM) 99.7% | viability, T/C [1] 94.4% | viability, T/C [2] 82.8% | viability, T/C [3] 68.8% | viability, T/C [4] 53.5% | viability, T/C (second compound 0.1 µM, first compound 0.00316 µM) 115% | viability, T/C (second compound 0.1 µM, first compound 0.01 µM) 94.1% | viability, T/C [7] 88.7% | viability, T/C [8] 85.7% | viability, T/C [9] 66.3% | viability, T/C [10] 51.9% | viability, T/C (second compound 0.316 µM, first compound 0.00316 µM) 104% | viability, T/C (second compound 0.316 µM, first compound 0.01 µM) 101% | viability, T/C [13] 80.9% | viability, T/C [14] 82.1% | viability, T/C [15] 73.6% | viability, T/C [16] 49.7% | viability, T/C (second compound 1 µM, first compound 0.00316 µM) 105% | viability, T/C (second compound 1 µM, first compound 0.01 µM) 94.2% | viability, T/C [19] 91.6% | viability, T/C [20] 85.4% | viability, T/C [21] 70.3% | viability, T/C [22] 50.7% | viability, T/C (second compound 3.16 µM, first compound 0.00316 µM) 95.3% | viability, T/C (second compound 3.16 µM, first compound 0.01 µM) 90.1% | viability, T/C [25] 80% | viability, T/C [26] 69% | viability, T/C [27] 59.4% | viability, T/C [28] 50.2% | viability, T/C (second compound 10 µM, first compound 0.00316 µM) 95.8% | viability, T/C (second compound 10 µM, first compound 0.01 µM) 86.2% | viability, T/C [31] 69.7% | viability, T/C [32] 59% | viability, T/C [33] 46.6% | viability, T/C [34] 44.3%
